# US9120749B2, “Quinoline derivatives and MELK inhibitors containing the same” (ONCOTHERAPY SCIENCE, INC., priority 2010, dated 2015)
# Counter-ions that a name gives are not always drawn.
# Tests used:
# MELK = MELK (Homo sapiens, UniProt Q14680); assay: Kinase assay: MELK activity, phosphorylation of FITC-labeled histone H3 peptide measured by IMAP fluorescence polarization; format: biochemical; details: read-out: IC50 (μM) (kinase assay)
# Summary of the method: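 Polarization of fluorescence served as the signal for MELK turnover of FITC-conjugated histone H3 peptide. Binding solution quenched each reaction, and plates stood 0.5 hour at room temperature before reading.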
# T47D cells = assay: Cell-based assay: anti-proliferative activity, Cell Counting Kit-8, 72 hours (T47D); details: Homo sapiens, T47D, 72 h
# Summary of the method: (§1)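 Target-specific cytotoxicity: seeded cells treated with MELK inhibitor candidates for 72 h, proliferation quantified via CCK-8, IC50 fitted.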
# A549 cells = assay: Cell-based assay: anti-proliferative activity, Cell Counting Kit-8, 72 hours (A549); details: Homo sapiens, A549, 72 h, 72 hours
# Summary of the method: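 A549 cells were seeded in 96-well plates and exposed to candidate inhibitors for 72 hours. Cell growth was then measured with Cell Counting Kit-8, and IC50 values were calculated from the resulting growth data.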
# HT-1197 cells = assay: Cell-based assay: anti-proliferative activity, Cell Counting Kit-8, 72 hours (HT-1197, negative control without MELK expression); details: Homo sapiens, HT1197, 72 h, HT1197 cells (negative control, no MELK expression), 72 hours
# Summary of the method: as §1
# DU4475 cells = assay: Cell-based assay: anti-proliferative activity, Cell Counting Kit-8, 72 hours (DU4475); details: Homo sapiens, DU-4475, 72 h
# MELK, sequence (Q14680 whole entry, looked up): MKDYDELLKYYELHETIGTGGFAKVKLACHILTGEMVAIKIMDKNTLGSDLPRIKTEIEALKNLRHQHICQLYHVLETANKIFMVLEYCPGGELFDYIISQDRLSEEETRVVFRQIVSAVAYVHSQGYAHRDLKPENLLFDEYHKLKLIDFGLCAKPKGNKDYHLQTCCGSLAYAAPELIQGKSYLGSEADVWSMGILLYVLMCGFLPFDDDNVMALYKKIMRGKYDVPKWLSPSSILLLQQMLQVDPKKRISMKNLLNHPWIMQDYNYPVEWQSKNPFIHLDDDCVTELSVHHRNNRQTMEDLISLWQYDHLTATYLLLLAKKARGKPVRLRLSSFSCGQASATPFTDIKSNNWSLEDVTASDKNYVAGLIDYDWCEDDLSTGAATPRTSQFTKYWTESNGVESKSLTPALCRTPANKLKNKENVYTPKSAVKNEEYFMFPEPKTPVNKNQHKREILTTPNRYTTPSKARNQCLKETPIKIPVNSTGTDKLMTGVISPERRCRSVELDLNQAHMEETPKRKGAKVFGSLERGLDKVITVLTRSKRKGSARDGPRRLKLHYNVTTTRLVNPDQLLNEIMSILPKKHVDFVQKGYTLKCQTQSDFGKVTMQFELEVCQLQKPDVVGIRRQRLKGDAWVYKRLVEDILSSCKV
Compound,IC50 (MELK) [µM],IC50 (T47D cells) [µM],IC50 (A549 cells) [µM],IC50 (HT-1197 cells) [µM],IC50 (DU4475 cells) [µM]
"COc1cc(-c2ccc3ncc(C(=O)C4CC4)c(Nc4ccc(CN5CCN(C)CC5)nc4)c3c2)cc(Cl)c1O [Example 683, (6-(3-chloro-4-hydroxy-5-methoxyphenyl)-4-(6-((4-methylpiperazin-1-yl)methyl)pyridin-3-ylamino)quinolin-3-yl)(cyclopropyl)methanone]",0.016,0.69,1.2,9.8,1.3
"CN1CCN(Cc2ccc(Nc3c(C(=O)C4CC4)cnc4ccc(-c5cc(F)c(O)c(Cl)c5)cc34)cn2)CC1 [Example 684, (6-(3-chloro-5-fluoro-4-hydroxyphenyl)-4-(6-((4-methylpiperazin-1-yl)methyl)pyridin-3-ylamino)quinolin-3-yl)(cyclopropyl)methanone]",0.05,0.88,1.5,15,0.82
"CNC[C@H]1CC[C@H](Nc2c(C(=O)C3CC3)cnc3ccc(-c4cc(Cl)c(O)c(Cl)c4)cc23)CC1 [Example 685, cyclopropyl(6-(3,5-dichloro-4-hydroxyphenyl)-4-((trans-4-((methylamino)methyl)cyclohexyl)amino)quinolin-3-yl)methanone]",0.0016,0.054,0.14,0.73,0.018
"COC1CCN(C2CCC(Nc3c(C(=O)C4CC4)cnc4ccc(-c5cc(F)c(O)c(Cl)c5)cc34)CC2)C1 (stereo not shown) [Example 686, (6-(3-chloro-5-fluoro-4-hydroxyphenyl)-4-(4-(3-methoxypyrrolidin-1-yl)cyclohexylamino)quinolin-3-yl)(cyclopropyl)methanone]",0.0035,0.19,0.17,1.1,0.16
"COc1cc(-c2ccc3ncc(C(=O)C4CC4)c(NC4CCC(N5CCC(OC)C5)CC4)c3c2)cc(Cl)c1O (stereo not shown) [Example 687, (6-(3-chloro-4-hydroxy-5-methoxyphenyl)-4-(4-(3-methoxypyrrolidin-1-yl)cyclohexylamino)quinolin-3-yl)(cyclopropyl)methanone]",0.0033,0.63,0.45,3.3,0.33
"COc1cc(-c2ccc3ncc(C(C)=O)c(Nc4ccc(N5CCCC(N)C5)nc4)c3c2)cc(Cl)c1O (stereo not shown) [Example 688, 1-(4-(6-(3-aminopiperidin-1-yl)pyridin-3-ylamino)-6-(3-chloro-4-hydroxy-5-methoxyphenyl)quinolin-3-yl)ethanone]",0.0032,0.056,0.23,1.7,0.11
COc1cc(-c2ccc3ncc(C(=O)C4CC4)c(Nc4ccc(N5CCC(N(C)C)C5)nc4)c3c2)cc(Cl)c1O (stereo not shown) [Example 689],0.013,0.28,1.5,9.4,3.2
"CN(C)C1CCN(c2ccc(Nc3c(C(=O)C4CC4)cnc4ccc(-c5cc(Cl)c(O)c(Cl)c5)cc34)cn2)C1 (stereo not shown) [Example 690, cyclopropyl(6-(3,5-dichloro-4-hydroxyphenyl)-4-(6-(3-(dimethylamino)pyrrolidin-1-yl)pyridin-3-ylamino)quinolin-3-yl)methanone]",0.0047,0.25,0.3,4,0.19
"CN(C)C1CCN(c2ccc(Nc3c(C(=O)C4CC4)cnc4ccc(-c5cc(F)c(O)c(Cl)c5)cc34)cn2)C1 (stereo not shown) [Example 691, (6-(3-chloro-5-fluoro-4-hydroxyphenyl)-4-(6-(3-(dimethylamino)pyrrolidin-1-yl)pyridin-3-ylamino)quinolin-3-yl)(cyclopropyl)methanone]",0.012,0.18,0.32,5.9,0.22
"COc1cc(-c2ccc3ncc(C(=O)C4CC4)c(Nc4cccc(CCN(C)C)c4)c3c2)cc(Cl)c1O [Example 692, (6-(3-chloro-4-hydroxy-5-methoxyphenyl)-4-(3-(2-(dimethylamino)ethyl)phenylamino)quinolin-3-yl)(cyclopropyl)methanone]",0.0056,1,0.37,5.9,0.3
"CN(C)CCc1cccc(Nc2c(C(=O)C3CC3)cnc3ccc(-c4cc(F)c(O)c(Cl)c4)cc23)c1 [Example 693, {6-(3-Chloro-5-fluoro-4-hydroxyphenyl)-4-[3-(2-(dimethylamino)ethyl)phenylamino]quinolin-3-yl}(cyclopropyl)methanone]",0.0083,0.37,0.09,10,0.085
"CN(C)C1CCN(Cc2ccc(Nc3c(C(=O)C4CC4)cnc4ccc(-c5cc(F)c(O)c(Cl)c5)cc34)cc2)C1 (stereo not shown) [Example 696, (6-(3-chloro-5-fluoro-4-hydroxyphenyl)-4-(4-((3-(dimethylamino)pyrrolidin-1-yl)methyl)phenylamino)quinolin-3-yl)(cyclopropyl)methanone]",0.012,0.46,0.18,5.4,0.17
"COc1cc(-c2ccc3ncc(C(=O)C4CC4)c(Nc4ccc(CN5CCC(N(C)C)C5)cc4)c3c2)cc(Cl)c1O (stereo not shown) [Example 697, (6-(3-chloro-4-hydroxy-5-methoxyphenyl)-4-(4-((3-(dimethylamino)pyrrolidin-1-yl)methyl)phenylamino)quinolin-3-yl)(cyclopropyl)methanone]",0.0084,0.81,0.44,1.8,0.64
"CN(C)CCc1cccc(Nc2c(C(=O)C3CC3)cnc3ccc(-c4cc(Cl)c(O)c(Cl)c4)cc23)c1 [Example 698, Cyclopropyl{6-(3,5-dichloro-4-hydroxyphenyl)-4-[3-(2-(dimethylamino)ethyl)phenylamino]quinolin-3-yl}methanone]",0.0024,0.3,0.05,10,0.04
"CN1CCCC(n2cc(Nc3c(C(=O)C4CC4)cnc4ccc(-c5cc(F)c(O)c(Cl)c5)cc34)cn2)C1 (stereo not shown) [Example 699, {6-(3-Chloro-5-fluoro-4-hydroxyphenyl)-4-[1-(1-methylpiperidin-3-yl)-1H-pyrazol-4-ylamino]quinolin-3-yl}(cyclopropyl)methanone]",0.0026,0.24,0.18,2.7,0.072
O=C(c1cnc2ccc(-c3cc(Cl)c(O)c(Cl)c3)cc2c1N[C@H]1CC[C@H](CNCCF)CC1)C1CC1 [Example 700],0.0015,0.47,0.47,2.2,0.25
O=C(c1cnc2ccc(-c3cc(F)c(O)c(Cl)c3)cc2c1N[C@H]1CC[C@H](CNCCF)CC1)C1CC1 [Example 701],0.003,0.29,0.41,0.98,0.38
CC(=O)c1cnc2ccc(-c3cc(Cl)c(O)c(Cl)c3)cc2c1Nc1ccc(N2CCNCC2)nc1 [Example 702],0.0014,0.046,0.14,2.4,0.044
"CN1CCCC(n2cc(Nc3c(C(=O)C4CC4)cnc4ccc(-c5cc(Cl)c(O)c(Cl)c5)cc34)cn2)C1 (stereo not shown) [Example 703, Cyclopropyl{6-(3,5-dichloro-4-hydroxyphenyl)-4-[1-(1-methylpiperidin-3-yl)-1H-pyrazol-4-ylamino]quinolin-3-yl}methanone]",0.0013,0.33,0.11,5.5,0.052
"COc1cc(-c2ccc3ncc(C(C)=O)c(Nc4ccc(N5CCNCC5)nc4)c3c2)cc(Cl)c1O [Example 704, 1-(6-(3-chloro-4-hydroxy-5-methoxyphenyl)-4-(6-(piperazin-1-yl)pyridin-3-ylamino)quinolin-3-yl)ethanone hydrochloride]",0.0023,0.17,0.2,2.1,0.12
"CN[C@H]1CC[C@H](n2cc(Nc3c(C(=O)C4CC4)cnc4ccc(-c5cc(Cl)c(O)c(Cl)c5)cc34)cn2)CC1 [Example 705, Cyclopropyl{6-(3,5-dichloro-4-hydroxyphenyl)-4-[1-(trans-4-(methylamino)cyclohexyl)-1H-pyrazol-4-ylamino]quinolin-3-yl}methanone]",0.0017,0.24,1.7,10,0.072
"N[C@H]1CC[C@H](n2cc(Nc3c(C(=O)C4CC4)cnc4ccc(-c5cc(Cl)c(O)c(Cl)c5)cc34)cn2)CC1 [Example 706, (4-((1-(trans-4-aminocyclohexyl)-1H-pyrazol-4-yl)amino)-6-(3,5-dichloro-4-hydroxyphenyl)quinolin-3-yl)(cyclopropyl)methanone dihydrochloride]",0.0011,0.042,0.59,7.9,0.02
"CN(C)CC(O)c1ccc(Nc2c(C(=O)C3CC3)cnc3ccc(-c4cc(F)c(O)c(Cl)c4)cc23)cc1 (stereo not shown) [Example 707, {6-(3-Chloro-5-fluoro-4-hydroxyphenyl)-4-[4-(2-(dimethylamino)-1-hydroxyethyl)phenylamino]quinolin-3-yl}(cyclopropyl)methanone]",0.0059,0.21,0.13,3.4,0.081
